# What was measured:
# [1] = system: Bacillus subtilis (RCMB 010067); assay: MIC by serial dilution method; assay type: cell-based; settings: RCMB010067, Gm+ve, read-out: Minimum inhibitory concentration, MIC, B.S
# Method: (§1) All the newly synthesized compounds described in this report were screened for both antibacterial and antifungal activity via the reported agar diffusion well method (Vanden Berghe and Vlietinck, 1991[62]). The inhibition zones and minimum inhibitory concentrations (MIC) were determined by the serial dilution method (Cappuccino and Sherman, 1999[12]). The antimicrobial activity of the synthesized compounds was tested against a broad panel of microorganisms including two Gram-positive bacteria: Streptococcus pneumoniae (RCMB 010010) and Bacillus subtilis (RCMB 010067), two Gram-negative bacteria: Pseudomonas aeruginosa (RCMB 010043) and Escherichia coli (RCMB 010052), and four fungi: Aspergillus fumigatus (RCMB 02568), Syncephalastrum racemosum (RCMB 05922), Geotricum candidum (RCMB 05097), and Candida albicans (RCMB 05036). Ampicillin, ciprofloxacin, gentamicin and amphotericin B were used as positive control drugs (Atta-ur-Rahman and Thomsen, 2001[7]; Smania et al., 1999[57]). […] While in the case of Gm-ve bacteria, they had weak activity. In addition, certain strains of fungi were sensitive to tested compounds with an IZ range from 12-25 except Candida albicans.
# [2] = system: Streptococcus pneumoniae (RCMB 010010); assay: MIC by serial dilution method; assay type: cell-based; settings: RCMB010010, Gm+ve, read-out: Minimum inhibitory concentration, MIC, S.P
# Method: as §1
# [3] = system: Escherichia coli (RCMB 010052); assay: MIC by serial dilution method; assay type: cell-based; settings: RCMB010052, Gm-ve, read-out: Minimum inhibitory concentration, MIC, E.C
# Method: as §1
# [4] = system: Syncephalastrum racemosum (RCMB 05922); assay: MIC by serial dilution method; assay type: cell-based; settings: RCMB05922, fungi, read-out: Minimum inhibitory concentration, MIC, S.R
# Method: as §1
# [5] = system: Geotricum candidum (RCMB 05097); assay: MIC by serial dilution method; assay type: cell-based; settings: fungi; read-out: Minimum inhibitory concentration, MIC, G.C
# Method: as §1
# [6] = system: Aspergillus fumigatus (RCMB 02568); assay: MIC by serial dilution method; assay type: cell-based; settings: RCMB02568, fungi, read-out: Minimum inhibitory concentration, MIC, A.F
# Method: as §1
# [7] = system: Pseudomonas aeruginosa (RCMB 010043); assay: MIC by serial dilution method; assay type: cell-based; settings: RCMB010043, Gm-ve, read-out: Minimum inhibitory concentration, MIC, P.A
# Method: as §1
# [8] = system: human breast adenocarcinoma (MCF-7); assay: Cytotoxic screening; assay type: cell-based; settings: Homo sapiens, MCF7; read-out: IC50 MCF-7
# Method: (§2) Human colon carcinoma (HCT-116), human hepatocellular carcinoma (HEPG-2), adenocarcinomic human alveolar basal epithelial cell (A-549), and human breast adenocarcinoma (MCF-7) cell lines were obtained from the American Type Culture Collection (ATCC, Rockville, MD). The cells were grown on RPMI-1640 medium supplemented with 10 % inactivated fetal calf serum and 50 µg/ml gentamycin. The cells were maintained at 37 °C in a humidified atmosphere with 5 % CO2 and were subcultured two to three times a week. Potential cytotoxicity of the compounds was evaluated on tumor cells using the method of Gangadevi and Muthumary (2007[21]) (Klancnik et al., 2010[36]). The cells were grown as monolayers in growth RPMI-1640. The monolayers of 104 cells adhered at the bottom of the wells in a 96-well microtiter plate incubated for 24 h at 37 °C in a humidified incubator with 5 % CO2. The monolayers were then washed with sterile phosphate buffered saline (0.01 M pH 7.2) and simultaneously the cells were treated with 100 µL from different dilutions of tested sample in fresh maintenance medium and incubated at 37 °C. A control of untreated cells was made in the absence of tested sample. Positive controls containing doxorubicin were also tested as a reference drug for comparison. Six wells were used for each concentration of the test sample. Every 24 hours an observation under the inverted microscope was made. The number of the surviving cells was determined by staining the cells with crystal violet (Mosmann, 1983[42]; Gangadevi and Muthumary, 2007[21]) followed by cell lysing using 33 % glacial acetic acid and reading the absorbance at 590 nm using microplate reader (SunRise, TECAN, Inc, USA) after well mixing. The absorbance values from untreated cells were considered as 100 % proliferation. The number of viable cells was determined using microplate reader as previously mentioned before and the percentage of […] was calculated as [1-(ODt/ODc)] x 100 % where ODt is the mean optical density of wells treated with the tested sample and ODc is the mean optical density of untreated cells. The relation between surviving cells and drug concentration was plotted to get the survival curve of each tumor cell line after treatment with the specified compound. The 50 % inhibitory concentration (IC50), the concentration required to cause toxic effects in 50 % of intact cells, was estimated from graphic plots.
# (§3) The in vitro cytotoxic activity was performed by MTT assay (Mosmann, 1983[42]; Alley et al., 1988[6]) against three human carcinoma cell lines: Human colon carcinoma (HCT-116), human breast adenocarcinoma (MCF-7), and human hepatocellular carcinoma (HEPG-2).
# [9] = system: Human colon carcinoma (HCT-116); assay: Cytotoxic screening; assay type: cell-based; settings: Homo sapiens, HCT-116; read-out: IC50 HCT-116
# Method: as §2, §3
# [10] = system: human hepatocellular carcinoma (HEPG-2); assay: Cytotoxic screening; assay type: cell-based; settings: HepG2, read-out: IC50 HepG-2
# Method: as §2, §3
# [11] = system: Bacillus subtilis (RCMB 010067); assay: Well diffusion assay (inhibition zone); assay type: cell-based; settings: RCMB010067, 5 mg/mL in DMSO, Gm+ve, read-out: Inhibition Zone (IZ) diameter, B.S
# Method: (§4) The microorganism inoculums were uniformly spread using sterile cotton swabs on a sterile Petri dish malt extract agar (for fungi) and nutrient agar (for bacteria). One hundred cubic millimeters of each sample was added to each well (10 mm-diameter holes were cut in the agar gel, 20 mm apart from one another). The systems were incubated for 24-48 h at 37 °C (for bacteria) and at 28 °C (for fungi). After incubation, the microorganism growth was observed. Inhibition zones of the bacterial and fungal growth were measured in millimeters. Tests were performed in triplicate (Cappuccino and Sherman, 1999[12]; Vanden Berghe and Vlientinck, 1991[62]).
# as §1
# [12] = system: Streptococcus pneumoniae (RCMB 010010); assay: Well diffusion assay (inhibition zone); assay type: cell-based; settings: RCMB010010, 5 mg/mL in DMSO, Gm+ve, read-out: Inhibition Zone (IZ) diameter, S.P
# Method: as §4, §1
# [13] = system: Escherichia coli (RCMB 010052); assay: Well diffusion assay (inhibition zone); assay type: cell-based; settings: RCMB010052, 5 mg/mL in DMSO, Gm-ve, read-out: Inhibition Zone (IZ) diameter, E.C
# Method: as §4, §1
# [14] = system: Syncephalastrum racemosum (RCMB 05922); assay: Well diffusion assay (inhibition zone); assay type: cell-based; settings: RCMB05922, 5 mg/mL in DMSO, fungi, read-out: Inhibition Zone (IZ) diameter, S.R
# Method: as §4, §1
# [15] = system: Geotricum candidum (RCMB 05097); assay: Well diffusion assay (inhibition zone); assay type: cell-based; settings: 5 mg/mL in DMSO; fungi; read-out: Inhibition Zone (IZ) diameter, G.C
# Method: as §4, §1
# [16] = system: Aspergillus fumigatus (RCMB 02568); assay: Well diffusion assay (inhibition zone); assay type: cell-based; settings: RCMB02568, 5 mg/mL in DMSO, fungi, read-out: Inhibition Zone (IZ) diameter, A.F
# Method: as §4, §1
# [17] = system: Pseudomonas aeruginosa (RCMB 010043); assay: Well diffusion assay (inhibition zone); assay type: cell-based; settings: RCMB010043, 5 mg/mL in DMSO, Gm-ve, read-out: Inhibition Zone (IZ) diameter, P.A
# Method: as §4, §1
# [18] = system: HCT-116, MCF-7, HEPG-2; assay: Cytotoxic screening, statements over the three cell lines; assay type: cell-based; settings: Homo sapiens; HCT-116, MCF-7, HEPG-2 together; read-out: IC50, range over the three cell lines
# Method: as §2, §3
SMILES,MIC [1] [µg/mL],MIC [2] [µg/mL],MIC [3] [µg/mL],MIC [4] [µg/mL],MIC [5] [µg/mL],MIC [6] [µg/mL],MIC [7] [µg/mL],melting point [°C],IC50 [8] [µg/mL],IC50 [9] [µg/mL],IC50 [10] [µg/mL],zone of inhibition at 5000 µg/mL [11] [mm],zone of inhibition at 5000 µg/mL [12] [mm],zone of inhibition at 5000 µg/mL [13] [mm],zone of inhibition at 5000 µg/mL [14] [mm],zone of inhibition at 5000 µg/mL [15] [mm],zone of inhibition at 5000 µg/mL [16] [mm],zone of inhibition at 5000 µg/mL [17] [mm],IC50 [18] [µg/mL]
"COc1ccc(C2C(C#N)=C(N)Oc3c(N)cc4ccccc4c32)cc1 (stereo not shown) [4d, 3,5-diamino-1-(4-methoxy-phenyl)-1H-benzo[f]chromene-2-carbonitrile]",0.007,7.81,15.6,62.5,0.06,0.98,125,183,4.68,4.79,2.64,29.8,19.5,17.6,16.5,25.8,22.3,12.3,–
"Nc1cccc2c(O)cccc12 [compound 5, 5-amino-1-naphthol]",–,–,–,–,–,–,–,–,8.88,11.5,15.2,18.9,16.3,17.2,14.5,19.5,18.3,–,9 to 15
"N#CC1=C(N)Oc2cc(O)c(N=Nc3cccc(O)c3)cc2C1c1ccccc1F (stereo not shown) [13k, 2-Amino-4-(2-fluoro-phenyl)-7-hydroxy-6-(3-hydroxy-phenylazo)-4H-chromene-3-carbonitrile]",0.49,0.98,15.6,3.9,1.95,15.6,31.2,280,44.1,71.4,41.8,24.3,22.6,18.6,17.1,21.3,19.4,17.1,–

# Reference: article PMC5547389, “Structure-activity relationships and molecular docking studies of chromene and chromene based azo chromophores: A novel series of potent antimicrobial and anticancer agents” (EXCLI Journal, 2017)
